The text below walks through data of ChEMBL document CHEMBL6182925 (J Med Chem, 2025).

The term inhibition denotes the change of the read-out against control, counted positive when it falls. As a reminder, the half-life is the time needed for the level to fall by half in the phase considered. For orientation: clearance means a measure of how efficiently the substance is removed, as volume per time. What is called AUC(0-t) is exposure summed from dosing to a finite time, without extrapolation to infinity. What is called bioavailability is dose-corrected exposure relative to a reference, in per cent. Broadly, the Vd is a proportionality between amount in the body and measured concentration, not a real space. What is called EC50 is the concentration needed to bring the measured effect to its halfway point.

≈ marks a conversion by molar mass, not a printed value.

A short description of data set [1]: Kinetic solubility of compound at pH 2. In kind it is physicochemical. Conditions: buffer, read-out: Kinetic_solubility.
The nature of data set [2]: Kinetic solubility of compound at pH 4.5. In kind it is physicochemical. Conditions: buffer, read-out: Kinetic_solubility.
Data set [3] deals with T1, Alpha-2A adrenergic receptor (Homo sapiens) (UniProt P08913).
T1 sequence (whole entry): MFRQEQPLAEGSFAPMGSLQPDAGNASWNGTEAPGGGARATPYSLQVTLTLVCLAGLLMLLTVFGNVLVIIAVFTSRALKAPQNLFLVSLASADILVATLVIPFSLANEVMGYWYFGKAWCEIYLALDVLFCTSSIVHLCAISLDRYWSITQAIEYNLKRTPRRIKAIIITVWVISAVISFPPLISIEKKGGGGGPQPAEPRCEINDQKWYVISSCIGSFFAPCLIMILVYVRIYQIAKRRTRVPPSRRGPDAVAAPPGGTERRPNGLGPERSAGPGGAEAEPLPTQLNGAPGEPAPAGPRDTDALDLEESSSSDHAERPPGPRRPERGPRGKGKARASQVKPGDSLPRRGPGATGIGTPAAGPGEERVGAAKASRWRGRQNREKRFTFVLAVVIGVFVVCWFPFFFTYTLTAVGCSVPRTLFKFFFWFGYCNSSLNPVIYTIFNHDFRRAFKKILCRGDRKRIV
Kind of data set: Inhibition of alpha 2A adrenergic receptor (unknown origin) at 10 uM by CEREP analysis relative to control.

The target in the next data set is hERG (Homo sapiens, UniProt Q12809). Kind of data set: Inhibition of hERG at 10 uM by CEREP analysis relative to control. In kind it is toxicity. (Block of hERG is tested as a sign of cardiac risk.)
Chain of hERG (Q12809 whole entry): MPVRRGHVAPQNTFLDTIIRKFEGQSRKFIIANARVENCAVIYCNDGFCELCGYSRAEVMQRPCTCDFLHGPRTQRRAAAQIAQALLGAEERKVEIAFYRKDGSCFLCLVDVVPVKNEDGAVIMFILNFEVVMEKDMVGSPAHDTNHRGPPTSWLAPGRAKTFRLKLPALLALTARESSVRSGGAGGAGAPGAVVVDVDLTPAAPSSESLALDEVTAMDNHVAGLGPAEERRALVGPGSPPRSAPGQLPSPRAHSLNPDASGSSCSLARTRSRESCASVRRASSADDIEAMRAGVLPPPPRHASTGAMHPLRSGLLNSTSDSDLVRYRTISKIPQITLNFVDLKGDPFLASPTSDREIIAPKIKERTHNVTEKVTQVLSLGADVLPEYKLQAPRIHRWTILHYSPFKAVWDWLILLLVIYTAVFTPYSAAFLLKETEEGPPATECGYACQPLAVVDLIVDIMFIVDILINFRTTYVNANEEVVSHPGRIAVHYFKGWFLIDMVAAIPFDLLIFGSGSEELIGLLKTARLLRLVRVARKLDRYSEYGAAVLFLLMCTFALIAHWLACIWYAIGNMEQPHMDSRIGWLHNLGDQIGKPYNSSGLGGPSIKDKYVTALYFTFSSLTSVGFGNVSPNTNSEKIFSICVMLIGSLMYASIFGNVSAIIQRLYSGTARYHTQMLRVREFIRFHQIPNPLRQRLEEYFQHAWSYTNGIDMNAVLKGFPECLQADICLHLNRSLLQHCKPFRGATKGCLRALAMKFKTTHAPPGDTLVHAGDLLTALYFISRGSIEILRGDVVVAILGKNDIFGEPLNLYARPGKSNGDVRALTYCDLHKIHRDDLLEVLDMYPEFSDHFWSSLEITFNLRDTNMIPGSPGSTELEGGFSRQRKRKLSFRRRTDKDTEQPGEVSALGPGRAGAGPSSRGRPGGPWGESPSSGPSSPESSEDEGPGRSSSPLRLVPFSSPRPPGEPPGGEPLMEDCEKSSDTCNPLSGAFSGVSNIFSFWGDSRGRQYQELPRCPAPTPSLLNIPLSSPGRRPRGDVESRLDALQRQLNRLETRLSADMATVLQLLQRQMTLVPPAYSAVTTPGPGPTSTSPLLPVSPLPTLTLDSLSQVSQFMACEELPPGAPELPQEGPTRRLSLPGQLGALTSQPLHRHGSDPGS
The target of data set [4] is 5-hydroxytryptamine receptor 1B (Homo sapiens) (UniProt P28222). The data set is described as follows: Inhibition of 5-HT1B receptor (unknown origin) at 10 uM by CEREP analysis relative to control.
Chain of 5-hydroxytryptamine receptor 1B (Homo sapiens) (P28222 whole entry): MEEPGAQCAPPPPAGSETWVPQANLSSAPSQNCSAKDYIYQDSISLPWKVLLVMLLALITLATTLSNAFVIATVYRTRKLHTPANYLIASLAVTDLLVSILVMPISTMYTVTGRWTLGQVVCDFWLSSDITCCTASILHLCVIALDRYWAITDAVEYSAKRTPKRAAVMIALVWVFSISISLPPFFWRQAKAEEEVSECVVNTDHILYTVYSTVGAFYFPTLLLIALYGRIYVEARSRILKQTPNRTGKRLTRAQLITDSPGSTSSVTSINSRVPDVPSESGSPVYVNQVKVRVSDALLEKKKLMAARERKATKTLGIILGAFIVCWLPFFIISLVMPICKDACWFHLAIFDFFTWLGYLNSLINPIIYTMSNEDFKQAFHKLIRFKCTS
Data set [5] concerns the target 5-hydroxytryptamine receptor 2B (Homo sapiens) (UniProt P41595). Kind of data set: Inhibition of 5-HT2B receptor (unknown origin) at 10 uM by CEREP analysis relative to control.
The species named for a further data set is Homo sapiens. The data set is described as follows: Inhibition of sodium channel site 2 (unknown origin) at 10 uM by CEREP analysis relative to control.
The target in another data set is L-type calcium channel (Homo sapiens, UniProt O60840+Q01668+Q13698+Q13936). The data set is described as follows: Inhibition of Calcium channel L-type (unknown origin) at 10 uM by CEREP analysis relative to control. It counts as protein assay.
In data set [6] the target is Sodium-dependent serotonin transporter (Homo sapiens) (UniProt P31645). The data set is described as follows: Inhibition of SERT (unknown origin) at 10 uM by CEREP analysis relative to control.
Chain of Sodium-dependent serotonin transporter (Homo sapiens) (P31645 whole entry, looked up): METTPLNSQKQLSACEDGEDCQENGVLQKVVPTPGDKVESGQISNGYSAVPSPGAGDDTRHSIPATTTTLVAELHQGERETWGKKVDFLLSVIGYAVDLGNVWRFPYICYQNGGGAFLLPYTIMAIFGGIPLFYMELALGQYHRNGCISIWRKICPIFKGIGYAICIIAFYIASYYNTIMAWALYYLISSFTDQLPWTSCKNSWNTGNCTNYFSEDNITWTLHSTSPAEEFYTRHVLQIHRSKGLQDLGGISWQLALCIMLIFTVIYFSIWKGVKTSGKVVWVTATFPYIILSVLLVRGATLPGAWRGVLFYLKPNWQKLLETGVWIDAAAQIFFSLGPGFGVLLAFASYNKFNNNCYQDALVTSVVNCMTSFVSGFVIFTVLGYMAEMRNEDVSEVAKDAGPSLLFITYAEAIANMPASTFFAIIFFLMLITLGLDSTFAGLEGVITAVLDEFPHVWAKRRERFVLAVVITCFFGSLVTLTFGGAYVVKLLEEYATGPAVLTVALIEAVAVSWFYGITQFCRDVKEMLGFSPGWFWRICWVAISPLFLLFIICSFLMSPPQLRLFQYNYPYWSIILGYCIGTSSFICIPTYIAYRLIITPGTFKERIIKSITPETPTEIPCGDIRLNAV
In data set [7] the target is cGMP-inhibited 3',5'-cyclic phosphodiesterase 3A (Homo sapiens) (UniProt Q14432). Kind of data set: Inhibition of PDE3A (unknown origin) at 10 uM by CEREP analysis relative to control.
Chain of cGMP-inhibited 3',5'-cyclic phosphodiesterase 3A (Homo sapiens) (Q14432 whole entry): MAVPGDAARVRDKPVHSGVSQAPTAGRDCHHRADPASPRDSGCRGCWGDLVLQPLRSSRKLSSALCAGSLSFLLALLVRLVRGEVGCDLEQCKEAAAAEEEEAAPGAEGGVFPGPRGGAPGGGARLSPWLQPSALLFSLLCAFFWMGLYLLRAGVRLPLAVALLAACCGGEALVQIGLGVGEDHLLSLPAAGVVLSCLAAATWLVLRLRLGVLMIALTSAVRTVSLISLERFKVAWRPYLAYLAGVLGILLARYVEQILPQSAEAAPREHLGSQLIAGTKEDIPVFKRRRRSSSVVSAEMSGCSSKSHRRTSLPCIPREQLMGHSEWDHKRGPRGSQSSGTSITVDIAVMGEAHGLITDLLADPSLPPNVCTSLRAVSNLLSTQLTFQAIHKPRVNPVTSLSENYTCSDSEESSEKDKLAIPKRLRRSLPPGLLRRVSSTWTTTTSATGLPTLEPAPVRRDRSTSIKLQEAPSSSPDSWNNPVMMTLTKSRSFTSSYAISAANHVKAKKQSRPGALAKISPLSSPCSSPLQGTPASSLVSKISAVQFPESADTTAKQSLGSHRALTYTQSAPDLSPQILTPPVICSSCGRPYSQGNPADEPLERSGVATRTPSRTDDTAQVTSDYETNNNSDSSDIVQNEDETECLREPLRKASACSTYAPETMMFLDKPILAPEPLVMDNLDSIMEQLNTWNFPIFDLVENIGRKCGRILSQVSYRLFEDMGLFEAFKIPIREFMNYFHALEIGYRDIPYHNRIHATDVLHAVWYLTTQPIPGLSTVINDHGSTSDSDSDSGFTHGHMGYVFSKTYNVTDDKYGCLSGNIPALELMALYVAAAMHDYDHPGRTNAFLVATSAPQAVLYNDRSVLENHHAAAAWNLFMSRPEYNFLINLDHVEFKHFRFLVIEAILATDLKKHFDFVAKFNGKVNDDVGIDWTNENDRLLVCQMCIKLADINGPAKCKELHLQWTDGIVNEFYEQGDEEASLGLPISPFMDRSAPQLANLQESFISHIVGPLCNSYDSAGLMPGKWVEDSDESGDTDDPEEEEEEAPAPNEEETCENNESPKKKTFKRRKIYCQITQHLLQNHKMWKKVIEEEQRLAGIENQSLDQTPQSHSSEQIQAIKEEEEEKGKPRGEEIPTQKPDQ
Data set [8] addresses 3',5'-cyclic-AMP phosphodiesterase 4D (Homo sapiens) (UniProt Q08499). Kind of data set: Inhibition of PDE4D2 (unknown origin) at 10 uM by CEREP analysis relative to control.
A short description of data set [9]: Half life in female Balb/c mouse at 5 mg/kg, iv. Conditions: in vivo. In kind it is ADME, organism-based.
Data set [10] in a line: Clearance in female Balb/c mouse at 5 mg/kg, iv. Conditions: in vivo. In kind it is ADME, organism-based.
Data set [11] is described as follows: AUClast in Balb/c mouse at 10 mg/kg, po. In kind it is ADME, organism-based. Conditions: in vivo.
Data set [12] in a line: Oral bioavailability in Balb/c mouse at 10 mg/kg. In kind it is ADME, organism-based. Conditions: in vivo.
Data set [13] in a line: Half life in male Sprague-Dawley rat at 3 mg/kg, iv. It counts as ADME, organism-based. Conditions: in vivo.
A short description of data set [14]: Clearance in male Sprague-Dawley rat at 3 mg/kg, iv. Conditions: in vivo. It counts as ADME, organism-based.
A short description of data set [15]: AUClast in male Sprague-Dawley rat at 10 mg/kg, po. In kind it is ADME, organism-based. Conditions: in vivo.
Data set [16] in a line: Oral bioavailability in male Sprague-Dawley rat at 10 mg/kg. Conditions: in vivo. In kind it is ADME, organism-based.
Data set [17] in a line: Half life in male Beagle dog at 2 mg/kg, iv. Conditions: in vivo. In kind it is ADME, organism-based, Canis lupus familiaris.
Data set [18] in a line: Clearance in male Beagle dog at 2 mg/kg, iv. It counts as ADME, organism-based, Canis lupus familiaris. Conditions: in vivo.
Data set [19] is described as follows: AUClast in male Beagle dog at 15 mg/kg, po. It counts as ADME, organism-based, Canis lupus familiaris. Conditions: in vivo.
The nature of data set [20]: Oral bioavailability in male Beagle dog at 15 mg/kg. In kind it is ADME, organism-based, Canis lupus familiaris. Conditions: in vivo.
A short description of data set [21]: Stability in mouse hepatocytes measured for 127 mins. It counts as ADME, cell-based, Hepatocyte. Conditions: 2.117 h.
Data set [22] in a line: Stability in rat hepatocytes measured for 175 mins. In kind it is ADME, cell-based, Hepatocyte. Conditions: 2.917 h.
The nature of data set [23]: Stability in dog hepatocytes. It counts as ADME, cell-based, Canis lupus familiaris, Hepatocyte.
A short description of data set [24]: Stability in monkey hepatocytes measured for 75 mins. Conditions: rhesus monkey, 1.25 h. In kind it is ADME, cell-based, Macaca mulatta, Hepatocyte.
Data set [25] in a line: Stability in human hepatocytes. In kind it is ADME, cell-based, Hepatocyte.
Data set [26] is described as follows: Volume of distribution in female Balb/c mouse at 5 mg/kg, iv. Conditions: in vivo. It counts as ADME, organism-based.
The nature of data set [27]: Volume of distribution in male Sprague-Dawley rat at 3 mg/kg, iv. It counts as ADME, organism-based. Conditions: in vivo.
Data set [28] is described as follows: Volume of distribution in male Beagle dog at 2 mg/kg, iv. It counts as ADME, organism-based, Canis lupus familiaris. Conditions: in vivo.
A short description of data set [29]: Dose-normalized AUC in male Sprague-Dawley rat at 10 mg/kg, po. It counts as ADME, organism-based. Conditions: in vivo.
A short description of data set [30]: Dose-normalized AUC in female Balb/c mouse at 10 mg/kg, po. In kind it is ADME, organism-based. Conditions: in vivo.
Data set [31] can be described thus: Dose-normalized AUC in male Beagle dog at 15 mg/kg, po. Conditions: in vivo. In kind it is ADME, organism-based, Canis lupus familiaris.
Data set [32] is described as follows: Oral bioavailability in female Balb/c mouse at 30 mg/kg. It counts as ADME, organism-based. Conditions: in vivo.
The nature of data set [33]: Oral bioavailability in male Sprague-Dawley rat at 30 mg/kg. In kind it is ADME, organism-based. Conditions: in vivo.
Data set [34] in a line: Oral bioavailability in male Beagle dog at 30 mg/kg. In kind it is ADME, organism-based, Canis lupus familiaris. Conditions: in vivo.
Another data set in a line: cells. Conditions: Mus musculus, BaF3/TRP-Met, 72 h.
Data set [35] relates to BaF3. The data set is described as follows: cells. Conditions: Mus musculus, BaF3, 72 h.
The test system of data set [36] is BaF3. The data set is described as follows: Antitumor activity against mouse BaF3 cells harboring TPR-D1228N mutant cells allografted in athymic BALB/c nude mouse at 10 mg/kg, po bid treated for 10 days relative to control. In kind it is functional. Conditions: BaF3, 240 h, time 10 day, read-out: TGI.

Chain of 5-hydroxytryptamine receptor 2B (Homo sapiens) (P41595 whole entry): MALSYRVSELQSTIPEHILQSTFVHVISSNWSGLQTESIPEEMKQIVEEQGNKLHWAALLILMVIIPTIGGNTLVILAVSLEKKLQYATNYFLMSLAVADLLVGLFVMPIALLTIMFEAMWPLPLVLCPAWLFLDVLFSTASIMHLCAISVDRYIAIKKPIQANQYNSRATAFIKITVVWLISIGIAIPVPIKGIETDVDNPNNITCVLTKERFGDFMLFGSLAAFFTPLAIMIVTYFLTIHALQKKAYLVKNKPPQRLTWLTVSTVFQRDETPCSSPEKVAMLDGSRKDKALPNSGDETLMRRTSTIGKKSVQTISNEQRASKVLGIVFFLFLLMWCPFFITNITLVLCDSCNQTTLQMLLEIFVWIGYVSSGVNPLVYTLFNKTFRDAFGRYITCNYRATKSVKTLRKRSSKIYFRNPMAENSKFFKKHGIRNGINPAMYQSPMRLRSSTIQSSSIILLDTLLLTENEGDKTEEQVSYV
Chain of 3',5'-cyclic-AMP phosphodiesterase 4D (Homo sapiens) (Q08499 whole entry): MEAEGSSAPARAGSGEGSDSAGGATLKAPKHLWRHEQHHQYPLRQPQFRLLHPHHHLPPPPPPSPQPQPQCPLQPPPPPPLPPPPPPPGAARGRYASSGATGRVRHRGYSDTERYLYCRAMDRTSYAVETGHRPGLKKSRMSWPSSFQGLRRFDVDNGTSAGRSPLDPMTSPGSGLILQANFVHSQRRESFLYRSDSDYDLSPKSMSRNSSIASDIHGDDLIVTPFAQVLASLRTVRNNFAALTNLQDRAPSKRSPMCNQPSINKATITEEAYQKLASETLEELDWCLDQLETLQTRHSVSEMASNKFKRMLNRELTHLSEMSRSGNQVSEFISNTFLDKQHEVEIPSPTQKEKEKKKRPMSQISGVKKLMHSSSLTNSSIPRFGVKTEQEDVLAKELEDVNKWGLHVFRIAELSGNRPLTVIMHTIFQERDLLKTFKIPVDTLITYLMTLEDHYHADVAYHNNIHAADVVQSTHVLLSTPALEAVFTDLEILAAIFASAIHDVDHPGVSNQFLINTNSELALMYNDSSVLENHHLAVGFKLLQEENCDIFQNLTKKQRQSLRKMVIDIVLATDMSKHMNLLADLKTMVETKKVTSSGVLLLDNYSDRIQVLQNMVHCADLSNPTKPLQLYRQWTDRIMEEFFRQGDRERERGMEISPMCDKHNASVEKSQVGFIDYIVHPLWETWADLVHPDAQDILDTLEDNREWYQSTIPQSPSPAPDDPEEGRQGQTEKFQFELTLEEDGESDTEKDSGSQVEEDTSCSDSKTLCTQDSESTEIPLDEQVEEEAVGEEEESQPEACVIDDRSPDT

Regarding `COc1cc2nccc(Oc3c(F)cc(NC(=O)c4cnccc4OC)cc3F)c2cc1OCCO`, the solubility kinetic is 279 µM (≈ 139 µg/mL) in data set [1] and 12.7 µM (≈ 6.32 µg/mL) in data set [2]. For the same compound, the inhibition in data set [3] turned out to be 11%; in data set [4], 16%; in data set [5], 16%; in the data set filed under Homo sapiens it was 25%; in data set [6] it was 10%; in [7] it was 34%. Besides, the inhibition in data set [8] came to 31%. Also, the values for the inhibition at 10 µM against hERG and at L-type calcium channel were 8% and 6%, respectively. For the same compound, the figures for the half-life in data set [9], in data set [13] and in [17] were 2.1 h, 3 h and 7.1 h, respectively. The clearance in data set [10] was determined as 4.11 mL/min/kg; in data set [14] it was 4.8 mL/min/kg; in data set [18] it was 6.7 mL/min/kg. Further, the figures for the AUC(0-t) in [11], in [15] and in data set [19] were 8220 ng·h/mL, 28200 ng·h/mL and 7170 ng·h/mL, respectively. The bioavailability in data set [12] is 20%; in [16], 61%; in data set [20], 18%; in data set [32], 13%; in [33] it was 34%; in [34], 8%. In addition, the Stability entry in data set [21], in data set [22], in data set [23], in data set [24] and in data set [25] was “Stable” throughout. In addition, the distribution volume (Vd) in data set [26] turned out to be 0.38 L/kg; in data set [27], 0.68 L/kg; in [28], 2.25 L/kg. The AUC/dose in data set [29] came to 2040 ng.h/mL per mg/kg; in [30], 822 ng.h/mL per mg/kg; in data set [31], 464 ng.h/mL per mg/kg. Besides, the EC50 in the data set “cells” stood at 64 nM; in the data set with BaF3 [35] it was 40 nM.

Turning to `CNC(=O)c1ccc(-c2cnc3ncc(Cc4ccc5ncccc5c4)n3n2)cc1F` [CAPMATINIB], the solubility kinetic in data set [1] was 279 µM (≈ 115 µg/mL); in data set [2], 17.5 µM (≈ 7.22 µg/mL). In addition, the inhibition in vivo at 10 mg/kg in the data set with BaF3 [36] worked out at 17%.
